ChEMBL document CHEMBL3507680, “University of Dundee, Gates Library screen for HepG2 cell viability”

Assay: Human HepG2 cell viability assay in 384 well format
Type: toxicity, cell-based
Design: dose 125 nL, time 70.5 hour; cytotoxicity at 70.5 h: concentration not given beside the values
Conditions: HepG2 cells, read-out: Inhibition

SMILES | cytotoxicity at 70.5 h [%]
CC(C(=O)NCCCN1CCOCC1)n1cncn1 (centres undefined) | 6.37
Cn1c(=O)oc2ccc(Nc3ncc(C#N)cc3Cl)cc21 | -2.37
Cc1ccc(CN2CCc3[nH]nc(C(=O)N4CCNC(=O)C4)c3C2)s1 | 3.82
Cn1ccc(C(=O)N2CCC(c3cc(CCO)n(C)n3)C2)n1 (centres undefined) | -5.56
COc1ccccc1OCCNC(=O)N1CCC(n2cncn2)CC1 | -4.48
CCC(CC)c1cc(CNC(=O)N2CCC(n3cncn3)CC2)on1 | -1.7
Cc1ccc2[nH]c(=O)cc(C(=O)NCCCn3nccc3C3CC3)c2c1 | -16
CC(=O)c1cccc(NC(=O)CN2CCCCC2C(=O)N2CCCC2)c1 (centres undefined) | -13.4
C[C@H](NC(=O)c1cnc(-c2ccccc2)nc1O)C(N)=O | -7.97
COc1cccc(C(=O)NC(CC(=O)O)c2cccs2)c1OC (centres undefined) | -9.47
COc1ccccc1CN(Cc1cccs1)S(=O)(=O)N(C)C(C)C | -2.73
c1cnc(N2CCC3(CCN(CC4CCOC4)C3)CC2)nc1 (centres undefined) | -17.9
CSC1(CNC(=O)c2ccn(-c3ccccc3F)n2)CCOCC1 | -8.53
O=C(O)[C@H]1CCCN1CCOc1cccc(Cl)c1 | -5.33
O=C(Nc1cc(C(F)(F)F)c[nH]c1=O)N1CCOCC1 | -12.9
CSCCC(=O)N1CCN(CC(C)O)CC1 (centres undefined) | -2.96
O=C(c1cccs1)N1CCN(Cc2cc(=O)c3ccccc3[nH]2)CC1 | -4.26
O=C(Nc1ccc(Cl)cn1)C1CCCN(CCc2ccccn2)C1 (centres undefined) | 14.5
Cn1c(=O)oc2ccc(NC(=O)N3CCOCC3)cc21 | 31.6
Cn1nccc1CNC(=O)CCn1nc(C(F)(F)F)c(Cl)c1C1CC1 | -3.15
COc1ccc(CN2CCc3ncnc(OC(C)C)c3CC2)cc1 | 43.9
CCN(CC)S(=O)(=O)NCC(O)c1c(Cl)cccc1Cl (centres undefined) | 8.36
CCOC(=O)Cc1csc(NC(=O)c2cc(=O)c(OC)c[nH]2)n1 | 2.05

SMILES | cytotoxicity at 70.5 h [%]
CN(CCC(=O)N1CCCC(Cc2cccnc2)C1)Cc1cccnc1 (centres undefined) | -6.27
FC(F)(F)c1nc(NC2CCCCC2)c2ccccc2n1 | -10.5
Cc1cc(N2CCC(NC(=O)C3CC3)CC2)nc(-c2ccncc2)n1 | -5.8
COc1ccc(NC(=O)c2ccoc2C)c(N2CCN(C(C)=O)CC2)n1 | -14.1
CN(C)c1nc(CNC(=O)N[C@H](CO)c2ccccc2)cs1 | 30.7
CCn1cnc(NC(=O)N2CCCC(c3ccccc3)CC2)n1 (centres undefined) | -6.51
CCn1ccnc1CN(C)C1CCCN(CCCc2ccccc2)C1 (centres undefined) | 18.6
Cc1ccccc1S(=O)(=O)N(C)[C@@H]1CC[C@@H](n2ccnc2C)[C@@H]1O | 53.4
O=C(NC1CCCN(c2ccc(OC(F)F)cc2)C1)c1c[nH]nn1 (centres undefined) | 18.5
O=C(NC1CC1)[C@H]1COC[C@H]2CN(c3ncc(F)cn3)C[C@H]21 | -8.95
CCCC(=O)NC(C(=O)OC)c1cc(F)ccc1F (centres undefined) | -3.96
CS(=O)(=O)N1CCC(c2nnc(Cn3ccnc3)n2C2CC2)CC1 | -3.52
CCCN1CC2(CCN(C)CC2)CC1C(=O)NCc1cc(C)nn1C (centres undefined) | -12.4
Cc1ccc(Cn2c(=O)[nH]c3csnc3c2=O)cc1 | -13.9
N#Cc1nccnc1N1CCC(OCCCc2ccccc2)C1 (centres undefined) | -6.29
O=C(CN1CCC2(CCCN(CCO)C2=O)C1)NCCc1ccccc1 (centres undefined) | 11.6
COc1cc(C)nc(N2CCN(C(=O)c3ccoc3C)CC2)n1 | -6.48
Fc1cccc(N2CCCC3(CN(Cc4nccs4)CCO3)C2)c1 (centres undefined) | -13.6
CCCc1cc(N2CCC(NCC3(O)CCCCC3)CC2)nc(C)n1 | -8.99
Cc1cccc(CN2CCCCC23CCNC3)n1 (centres undefined) | -8.16
CN(Cc1noc(C2CC2)n1)C1CCN(Cc2nnc(C3CC3)o2)C1 (centres undefined) | -3.86
Cc1ccc(CN(Cc2ccncc2)C2CC(C)(C)NC(C)(C)C2)o1 | -2.36
CNc1ncc(CN2CCC(CCc3ccccc3)CC2)cn1 | -1.31

SMILES | cytotoxicity at 70.5 h [%]
Cc1cc(C2CCCN(Cc3noc(Cc4ccccc4)n3)C2)n[nH]1 (centres undefined) | -1
COc1ccc2c3c1CN(C(C)=O)CC3=CC(C)(C)CO2 | 0.846
CCOCC(=O)NC1(c2nc(C)cs2)CCCC1 | -2.89
O=C(N[C@]12CC1CN(C(=O)c1ccco1)C2)c1ccco1 (some centres undefined) | -2.69
COCc1cccc(S(=O)(=O)NCc2cnn(C)c2C)c1 | -9.83
Cc1cccc(N2CCOCC3(C2)CN(c2cccnc2)C(=O)CO3)n1 (centres undefined) | -4.82
COc1ccc(CNc2cc(-c3nc(C)no3)ccn2)c(OC)c1 | -1.3
CCC(CCN)n1ccc(C(F)(F)F)n1 (centres undefined) | 4.74
COc1ccccc1C1(CNc2ccc(C(=O)N(C)C)cn2)CC1 | 25.8
FC(F)(F)CCc1ccnc(NC2CCOC2)n1 (centres undefined) | 27.9
CNc1ccnc(N2C[C@@H]3CC[C@H](C2)N(CCOC)C3=O)n1 | -8
Cc1noc(C)c1C(=O)N[C@@H]1CCC[C@@H](Oc2ccccc2)[C@@H]1O | -1.7
CC(=O)Nc1ncc(-c2ccc(C)cc2)[nH]1 | 4.65
Cc1ccc(CS(=O)(=O)CC(=O)NCc2ccccc2F)cc1 | -15.5
c1cncc(C[C@H]2[C@H](N3CCOCC3)CCN2Cc2cccs2)c1 | -5.01
CC1=C(c2ccc(F)cc2)S(=O)(=O)N=C1N1CCc2ccccc21 | -4.74
O=C(c1ccccc1)N1CCS(=O)(=O)[C@@H]2CCNCC[C@@H]21 | 3.07
CCN(C)C(=O)CCN(C)Cc1cnc(C)s1 | -0.298
CCCc1cc(C(=O)N2CCOC(c3nc(-c4cccs4)no3)C2)no1 (centres undefined) | 1.76
Cc1ncc(CN2CCN(C(=O)N(C)C)[C@@H]3CS(=O)(=O)C[C@@H]32)cn1 | -26.5
COc1cccc2c1OCC(CNC(=O)CCn1cnnn1)C2 (centres undefined) | -1.24
N[C@H]1CN(C(=O)c2ccc(Cl)cc2F)C[C@@H]1C1CC1 | -4.7
CC1CCN(Cc2ccccc2CNC(=O)C2CNC(=O)N2)CC1 (centres undefined) | -4.5

SMILES | cytotoxicity at 70.5 h [%]
Cc1noc(C)c1CN1CCOC(CNc2cccnn2)C1 (centres undefined) | 23.1
CNc1cccc(C2CCCN(C(=O)c3coc(C)n3)C2)n1 (centres undefined) | -0.702
Cc1noc(C)c1-c1cccc(C2CCNCC2)n1 | 7.5
Cc1cccc(OCC(O)CN2CCC(c3ccn[nH]3)CC2)c1 (centres undefined) | -0.803
CCn1cc(N)c(-c2nnc3n2CCCC3)n1 | -2.65
Cn1cncc1CN1CCC2(CC1)COCCN(S(C)(=O)=O)C2 | -8.74
CC[C@H]1CN(S(C)(=O)=O)CC[C@H]1CC(=O)NCCOC | 9.53
CC(=O)NC1CCN(C(=O)Nc2cccc(SC(F)F)c2)CC1 | -0.185
Cc1cc(CC(=O)NCC(O)COc2ccc(F)c(F)c2)no1 (centres undefined) | -12
COc1ccc(C(=O)N2CCC(Nc3cccnn3)CC2)c(OC)c1 | -6.9
O=C(CNc1ccccc1Cl)Nc1cc(-n2cnnn2)ccc1F | -117
Cc1nc([C@H]2C[C@H]3CN(C(=O)c4cc(C)c(C)s4)CC[C@@H]3O2)no1 | -12.1
CC(NC(=O)Nc1ccccc1CN1CCOCC1)c1nnc(N)s1 (centres undefined) | -11.9
Clc1cccc(Cl)c1-c1nnc(CNCCn2cccn2)o1 | -4.1
Cc1ccoc1C(=O)NC1CCN(Cc2csc3c(F)cccc23)CC1 | 18.8
COCCCN1CC2(CCN(Cc3ncc[nH]3)CC2)CC1=O | -4.09
CS(=O)(=O)NCC1OCCc2cn(CC3CC3)nc21 (centres undefined) | 13
COc1ccc(C2CC(=O)Nc3c2nc2n3CCCC2)cc1O (centres undefined) | -15.2
CNC(=O)C1CC(=O)N(c2cccc(F)c2)C1 (centres undefined) | -3.04
CC(Cc1ccc2c(c1)OCO2)c1cn(CCc2c[nH]cn2)nn1 (centres undefined) | -6.47
CC(C)N1CCn2c(COCC3CCOCC3)cnc2C1C (centres undefined) | -1.85
CCc1cnc(C)nc1NCCN1CCCCCC1 | -11.6
O=C(CCN1CCCO1)N1CC[C@@H](CNC(=O)N2CCCC2)[C@H](O)C1 | 14

SMILES | cytotoxicity at 70.5 h [%]
Cc1ncccc1NC(=O)C1=NOC2(CCN(Cc3nccs3)C2)C1 (centres undefined) | -11.1
O=C(N[C@@H]1CCC[C@@H](N2CCCC2)[C@@H]1O)c1cc2ccccc2[nH]1 | -8.28
CN(Cc1nc2c(cnn2C)c(=O)[nH]1)Cc1ccccc1Cl | -4.36
Cc1nc(C2CCCN2Cc2cc(Cl)c3c(c2)OCCO3)no1 (centres undefined) | 16.9
CC(=O)N1CCC(c2ccnc(Nc3cncnc3)n2)C1 (centres undefined) | -32.6
CCn1c(C2CCNCC2)nn(CCCc2ccccc2)c1=O | -5.09
CCN(Cc1cccc(C(=O)Nc2cn(C)nn2)c1)[C@H]1COC[C@@H]1O | -5.22
O=C(c1nnn(-c2ccc(Cl)cc2)n1)N(CCO)Cc1ccccc1 | -1.6
Cn1ccc(C(=O)N2CCCC2c2[nH]ncc2C(N)=O)n1 (centres undefined) | -4.61
O=C(c1ccc2c(c1)COC2)N1CCN(CCO)CC1 | -3.79
Cc1noc(C)c1CN1CCCC2(CCN(C(=O)C3CC3)C2)C1 (centres undefined) | -11.8
CN1CCOCC2(CCCN(C(=O)c3cn(C)cn3)C2)C1 (centres undefined) | 0.515
CC(C)(C)c1nc(CN2CCC(N3CCCCC3)CC2)no1 | -2.12
Fc1cccc(-c2nnn3c2COC(CNCc2cccs2)C3)c1 (centres undefined) | 1.1
c1cnc(Nc2cncc(C3CCCN(c4ncccn4)C3)n2)nc1 (centres undefined) | -7.66
O=C(NCC1(c2cccs2)CCCCC1)N1CCOC(CO)C1 (centres undefined) | -1.73
CCOC1Sc2nnc(C)n2N=C1c1ccc(Cl)cc1 (centres undefined) | -8.8
COc1ccnc(NC2CCN(CC(=O)N3CCCC3)CC2)n1 | -4.69
CNC(=O)C1CCN(c2ncc3c(n2)CCN3c2ccccc2)C1 (centres undefined) | -4.33
CCN(C(=O)CS(=O)(=O)c1cc(OC)c(OC)cc1C)C1CC1 | -8.45
Cc1nc(C)n(CC2CCCN2Cc2cnc(C)s2)n1 (centres undefined) | -8.97
Cc1ccncc1C(=O)N1C[C@@H]2CN(c3ncccn3)C[C@]2(C(=O)O)C1 | -5.72
